Results reported in PMC4585259 (Frontiers in Pharmacology, 2015).
Like-named read-outs stand apart in the source and are kept apart here.

Target: T1, rNav1.2 sodium channels (Rattus norvegicus, UniProt P04775)
T1 construct: host or cells: HEK-293
Assay: QPatch automated patch clamp, inhibition of sodium currents evoked by 5 Hz trains at three extracellular pH values
Format: cell-based
Conditions: for class of pH-dependence pattern (cluster analysis): Ward's method on 18 variables of affinity, reversibility, onset; for τoffset / τonset: concentration (lidocaine 300 μM, memantine 30 μM)
Method: HEK-293 cells stably expressing rNav1.2 sodium channels were obtained from NeuroSearch (Ballerup, Denmark). The cells were grown in Dulbecco's modified Eagle medium supplemented with 10% FBS. Prior to use, the cells were trypsinized and subsequently kept in suspension in the QPatch cell storage facility in CHO-S- SFM-II medium.
Composition of the extracellular solution was: (in mM): 140 NaCl, 3 KCl, 1 CaCl2 1 MgCl2, 0.1 CdCl2, 20 TEA-Cl, 5 HEPES, adjusted to pH 7.3, Osmolality: 320 mOsm. […] Drugs were synthesized in Gedeon Richter Plc. […] The full list of drugs, with their three-letter codes, concentration, as well as their main therapeutic indication and main mechanism of action are shown in Table 1. […] The choice of concentrations used in this study may seem unusually high.
Data were sampled at a frequency of 25 kHz and filtered at 5 kHz. Junction potential was calculated to be −11 mV and was corrected for. […] Cells having membrane resistance < 500 MOhm, series resistance > 9 MOhm, or capacitance > 22 pF were excluded from analysis. The experimental protocol was also identical to the one used in our previous study: sodium channels were activated by 5 Hz trains of 5 depolarizations (−90 to −10 mV) repeated in every 20 s. In this study, however, the same control–drug-application–washout sequence was repeated four times: at neutral, acidic, alkalic, and again neutral pH. The peak amplitudes of sodium currents throughout the whole experiment are shown plotted against time in Figure 1 and Supplementary Figure 1.
Initial analysis, including subtraction of leak and capacitive artifacts, as well as peak detection were done in the QPatch software. […] All experiments were normalized to the amplitude of the current evoked by the first depolarization of the last train under control conditions. […] For all four drug applications in an experiment, apparent affinity, onset and offset time constants as well as reversibility values were calculated. […] (This method is equivalent to applying the Lineweaver-Burk plot method using a single concentration.) Reversibility values were calculated from control (c), inhibited (i), and wash-out (w) amplitudes as follows: Reversibility = (w-i)/(c-i). Reversibility values should not be regarded as experimental platform-independent properties of compounds. […] However, reversibility values are a valuable source of information regarding physicochemical differences between individual drugs, or between effects of the same drug under different extracellular pH conditions. Onset and offset time constants were determined by single exponential fitting to individual experiments. For neutral pH numerical data were given as the average of the data from the first and the last drug applications. Thin black lines on Figure 1 and Supplemental Figure 1 show the average of five fitted exponentials, (not the exponential fitted to the averaged normalized amplitudes). The numerical values of apparent affinity, onset and offset time constants and reversibility are shown in Table 2, and their relative position is illustrated in Figure 2. Affinity and time constant values were logarithmically transformed for statistics, therefore we show their geometric mean. For recovery data no transformation was done, and we show arithmetic mean values. Significance values were calculated using paired, two-tailed Student's t-test based on five pairs of apparent affinity (log transform), time constant (log transform), or reversibility values obtained from five individual experiments. Because of the large number of comparisons in this study, we accepted p < 0.01 as significant. Cluster analysis was done using Ward's minimum variance method, with Euclidean distance measure. Data were normalized by subtracting the mean (after logarithmic transformation in the case of apparent affinity and time constants), and dividing by the standard deviation.

[1] = pH 6.0, single concentration (lidocaine 300 μM, memantine 30 μM), geometric mean of 5, read-out: apparent affinity
[2] = pH 7.3, single concentration (lidocaine 300 μM, memantine 30 μM), geometric mean of 5, read-out: apparent affinity
[3] = pH 8.6, single concentration (lidocaine 300 μM, memantine 30 μM), geometric mean of 5, read-out: apparent affinity
[4] = pH=6.0, cc 300 mM, read-out: Apparent Affinity
[5] = pH=7.3, cc 300 mM, read-out: Apparent Affinity
[6] = pH=8.6, cc 300 mM, read-out: Apparent Affinity

T1 sequence (P04775 whole entry): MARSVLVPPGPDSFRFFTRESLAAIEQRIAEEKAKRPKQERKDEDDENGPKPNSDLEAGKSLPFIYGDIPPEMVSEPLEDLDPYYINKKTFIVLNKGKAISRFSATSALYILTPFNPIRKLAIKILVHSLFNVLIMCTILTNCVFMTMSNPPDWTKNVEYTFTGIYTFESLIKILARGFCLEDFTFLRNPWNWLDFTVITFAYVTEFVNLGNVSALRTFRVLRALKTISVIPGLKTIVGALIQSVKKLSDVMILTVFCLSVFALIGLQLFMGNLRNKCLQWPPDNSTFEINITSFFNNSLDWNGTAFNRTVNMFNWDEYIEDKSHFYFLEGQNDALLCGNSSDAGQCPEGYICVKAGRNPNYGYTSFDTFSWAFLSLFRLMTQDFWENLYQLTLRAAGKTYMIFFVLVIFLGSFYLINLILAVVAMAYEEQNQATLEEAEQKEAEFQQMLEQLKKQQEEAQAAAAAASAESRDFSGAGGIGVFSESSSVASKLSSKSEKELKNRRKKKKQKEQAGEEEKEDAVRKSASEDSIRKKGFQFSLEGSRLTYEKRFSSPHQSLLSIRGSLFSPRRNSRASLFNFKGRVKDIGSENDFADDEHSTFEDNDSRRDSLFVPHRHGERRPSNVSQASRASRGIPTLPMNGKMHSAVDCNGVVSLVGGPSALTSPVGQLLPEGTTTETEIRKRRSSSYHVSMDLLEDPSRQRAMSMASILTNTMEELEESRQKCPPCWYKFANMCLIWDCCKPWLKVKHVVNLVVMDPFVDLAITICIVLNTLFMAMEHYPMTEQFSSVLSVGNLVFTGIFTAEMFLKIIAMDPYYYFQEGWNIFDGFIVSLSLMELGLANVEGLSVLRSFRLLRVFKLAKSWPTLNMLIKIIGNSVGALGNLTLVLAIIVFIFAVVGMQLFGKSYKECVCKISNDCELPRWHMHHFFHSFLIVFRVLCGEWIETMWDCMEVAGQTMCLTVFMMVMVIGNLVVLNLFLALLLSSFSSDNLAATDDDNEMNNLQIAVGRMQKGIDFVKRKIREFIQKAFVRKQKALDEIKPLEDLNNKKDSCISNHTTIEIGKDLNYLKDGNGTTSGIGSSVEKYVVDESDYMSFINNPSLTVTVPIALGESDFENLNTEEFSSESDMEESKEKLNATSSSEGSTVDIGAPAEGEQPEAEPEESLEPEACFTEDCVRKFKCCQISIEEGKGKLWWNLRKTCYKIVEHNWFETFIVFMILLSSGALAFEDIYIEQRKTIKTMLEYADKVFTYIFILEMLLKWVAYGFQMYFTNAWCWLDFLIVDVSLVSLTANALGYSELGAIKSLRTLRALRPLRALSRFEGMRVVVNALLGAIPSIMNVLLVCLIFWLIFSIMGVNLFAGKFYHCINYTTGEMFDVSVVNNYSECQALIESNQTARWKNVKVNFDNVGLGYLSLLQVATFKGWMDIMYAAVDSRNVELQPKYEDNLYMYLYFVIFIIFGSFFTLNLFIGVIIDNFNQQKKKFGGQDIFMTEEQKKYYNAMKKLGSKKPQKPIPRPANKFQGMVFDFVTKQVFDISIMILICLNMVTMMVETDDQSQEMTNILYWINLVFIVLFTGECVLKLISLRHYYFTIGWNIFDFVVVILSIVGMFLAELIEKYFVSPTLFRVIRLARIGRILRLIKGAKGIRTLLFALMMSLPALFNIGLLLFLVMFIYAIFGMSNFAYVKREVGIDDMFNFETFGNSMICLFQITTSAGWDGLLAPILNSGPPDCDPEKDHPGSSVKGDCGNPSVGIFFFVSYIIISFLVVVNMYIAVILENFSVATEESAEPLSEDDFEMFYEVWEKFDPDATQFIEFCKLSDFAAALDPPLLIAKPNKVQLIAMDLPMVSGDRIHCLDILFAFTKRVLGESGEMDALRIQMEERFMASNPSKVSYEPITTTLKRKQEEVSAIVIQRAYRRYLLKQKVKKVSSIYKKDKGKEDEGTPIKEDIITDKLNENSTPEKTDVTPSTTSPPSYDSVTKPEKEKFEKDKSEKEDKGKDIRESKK

SMILES | class of pH-dependence pattern (cluster analysis) | Ratio Reversibility (pH 6.0/7.3, cc 300 mM) | Ratio Tau Offset (pH 6.0/7.3, cc 300 mM) | Ratio Tau Onset (pH 6.0/7.3, cc 300 mM) | log Ratio App Aff (pH 6.0/7.3, cc 300 mM) | Ratio Reversibility (pH 6.0/8.6, cc 300 mM) | Ratio Tau Offset (pH 6.0/8.6, cc 300 mM) | Ratio Tau Onset (pH 6.0/8.6, cc 300 mM) | log Ratio App Aff (pH 6.0/8.6, cc 300 mM) | τoffset (pH 6.0) [s] | τonset (pH 6.0) [s] | Kd [1] [µM] | Ratio Reversibility (pH 7.3/8.6, cc 300 mM) | Ratio Tau Offset (pH 7.3/8.6, cc 300 mM) | τoffset (pH 7.3) [s] | τonset (pH 7.3) [s] | Kd [2] [µM] | τoffset (pH 8.6) [s] | τonset (pH 8.6) [s] | Kd [3] [µM] | also measured
NC(=O)N1c2ccccc2C=Cc2ccccc21 [carbamazepine] | Class A | 0.728 | 1.229 | 0.800 | -0.028 | 0.955 | 1.490 | 0.800 | 0.00109 | 12.30 | 4.00 | 545 | 1.312 | 1.212 | 10.01 | 5.00 | 581 | 8.25 | 5.00 | 543 | Ratio Tau Onset (pH 7.3/8.6, cc 300 mM): 1.000; log Ratio App Aff (pH 7.3/8.6, cc 300 mM): 0.029; Reversibility (pH=6.0, cc 300 mM): 0.67; Kd [4]: 545 µM; Reversibility (pH=7.3, cc 300 mM): 0.92; Kd [5]: 581 µM; Reversibility (pH=8.6, cc 300 mM): 0.70; Kd [6]: 543 µM
CN(C)CCCN1c2ccccc2Sc2ccc(Cl)cc21 [chlorpromazine] | Class G | – | – | – | – | – | – | – | – | 23.60 | 19.40 | 37.5 | – | – | 28.40 | 22.20 | 31.4 | 33.00 | 29.40 | 17.2 | alkalization-induced recovery (neutral-to-alkalic solution exchange, in words): prominent alkalization-induced recovery; reversibility at all three pH values (pH 6.0, 7.3 and 8.6): below 0.6; Ratio Reversibility (pH 6.0/7.3, cc 30 mM): 1.906; Ratio Tau Offset (pH 6.0/7.3, cc 30 mM): 0.831; Ratio Tau Onset (pH 6.0/7.3, cc 30 mM): 0.874; log Ratio App Aff (pH 6.0/7.3, cc 30 mM): 0.077; Ratio Reversibility (pH 6.0/8.6, cc 30 mM): 1.432; Ratio Tau Offset (pH 6.0/8.6, cc 30 mM): 0.715; Ratio Tau Onset (pH 6.0/8.6, cc 30 mM): 0.660; log Ratio App Aff (pH 6.0/8.6, cc 30 mM): 0.339; Ratio Reversibility (pH 7.3/8.6, cc 30 mM): 0.751; Ratio Tau Offset (pH 7.3/8.6, cc 30 mM): 0.861; Ratio Tau Onset (pH 7.3/8.6, cc 30 mM): 0.755; log Ratio App Aff (pH 7.3/8.6, cc 30 mM): 0.261; Reversibility (pH=6.0, cc 30 mM): 0.53; Kd (pH=6.0, cc 30 mM, read-out: Apparent Affinity): 37.5 µM; Reversibility (pH=7.3, cc 30 mM): 0.28; Kd (pH=7.3, cc 30 mM, read-out: Apparent Affinity): 31.4 µM; Reversibility (pH=8.6, cc 30 mM): 0.37; Kd (pH=8.6, cc 30 mM, read-out: Apparent Affinity): 17.2 µM
CNCCCN1c2ccccc2CCc2ccccc21 [desipramine] | Class C | – | – | – | – | – | – | – | – | 56.80 | 65.77 | – | – | – | 57.40 | 44.40 | – | 59.00 | 26.92 | – | effect of alkalic pH on onset/offset kinetics (in words): acceleration of onset; Reversibility (pH=6.0, cc 30 mM): 0.64; Reversibility (pH=7.3, cc 30 mM): 0.42; Reversibility (pH=8.6, cc 30 mM): 0.11
O=C(NCC1CCCCN1)c1cc(OCC(F)(F)F)ccc1OCC(F)(F)F (centres unmarked) [flecainide] | Class B | 1.142 | 1.344 | 2.358 | 0.419 | 2.794 | 3.109 | 7.632 | 0.583 | 91.40 | 58.00 | 68.1 | 2.446 | 2.313 | 68.00 | 24.60 | 25.9 | 29.40 | 7.60 | 17.8 | effect of alkalic pH on onset/offset kinetics (in words): significant acceleration of both onset and offset; Ratio Tau Onset (pH 7.3/8.6, cc 300 mM): 3.237; log Ratio App Aff (pH 7.3/8.6, cc 300 mM): 0.164; Reversibility (pH=6.0, cc 300 mM): 0.64; Kd [4]: 68.1 µM; Reversibility (pH=7.3, cc 300 mM): 0.56; Kd [5]: 25.9 µM; Reversibility (pH=8.6, cc 300 mM): 0.23; Kd [6]: 17.8 µM
